Measured values reported in the supplement of paper PMC11451515.

Key:
Details in all cases: 48 h
[1] = system: NOMO1; experiment: AUC of viability dose-response curve (% viability x log10 dose units); higher = less sensitive
Summary of the method: (§1)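 Leukemia cells adapted to each medium were seeded at 500 or 1000 cells/well in 1536-well plates and dosed with library compounds in DMSO at 11 threefold doses from 47 μM to 0.79 nM for 48 h at 37°C. CellTiter-Glo One luminescence was normalised per plate to DMSO and cell-free wells, then fitted with a four-parameter log-logistic model over log10 doses. Area under the curve was taken from this fit by the trapezoidal rule, with curves above full viability scaled and curves failing quality control removed.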

[2] = system: P12-Ichikawa; experiment: as above
Summary of the method: as §1

[3] = system: SEM cells; experiment: as above
Summary of the method: as §1

[4] = system: NOMO1; experiment: cell viability relative to DMSO control; higher = less cytotoxic
Summary of the method: (§2)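 Three leukemia lines were tested: NOMO1 and SEM at 500 cells/well and P12-Ichikawa at 1000 cells/well. Each was adapted for at least four passages in each medium and seeded in 5 μl in 1536-well plates, and library compounds in DMSO were pin-dosed from 47 μM to 0.79 nM in 11 threefold steps. After 48 h at 37°C, CellTiter-Glo One luminescence was read. Viability is a percentage relative to DMSO wells on each plate, with cell-free wells as background.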

[5] = system: P12-Ichikawa; experiment: as above
Summary of the method: as §2

[6] = system: SEM cells; experiment: as above
Summary of the method: as §2

CCc1cncnc1N1CCN(Cc2nc3cc(C(F)(F)F)ccc3[nH]2)CC1
AUC of viability dose-response curve
Details | [1] | [2] | [3]
HPLM + 10% dialyzed FBS | 462 | 445 | 429
RPMI 5 mM glucose + 10% FBS | 425 | 437 | 425
RPMI 5 mM glucose + 10% dialyzed FBS | 426 | 451 | 426

cell viability [%]
Details | [4] | [5] | [6]
HPLM + 10% dialyzed FBS, 0.000781 µM | 105 | 103 | 107
HPLM + 10% dialyzed FBS, 0.00234 µM | 114 | 106 | 104
HPLM + 10% dialyzed FBS, 0.00702 µM | 114 | 100 | 111
HPLM + 10% dialyzed FBS, 0.0211 µM | 98.5 | 102 | 101
HPLM + 10% dialyzed FBS, 0.0632 µM | 108 | 103 | 106
HPLM + 10% dialyzed FBS, 0.19 µM | 97.7 | 102 | 105
HPLM + 10% dialyzed FBS, 0.569 µM | 97.6 | 94.1 | 105
HPLM + 10% dialyzed FBS, 1.71 µM | 94 | 97.9 | 97.1
HPLM + 10% dialyzed FBS, 5.12 µM | 107 | 85.7 | 88.2
HPLM + 10% dialyzed FBS, 15.4 µM | 92 | 84 | 62.4
HPLM + 10% dialyzed FBS, 46.1 µM | 64.2 | 58 | 35.5
RPMI 5 mM glucose + 10% FBS, 0.000781 µM | 95.4 | 101 | 93.8
RPMI 5 mM glucose + 10% FBS, 0.00234 µM | 87.8 | 97.6 | 109
RPMI 5 mM glucose + 10% FBS, 0.00702 µM | 99.5 | 95.2 | 106
RPMI 5 mM glucose + 10% FBS, 0.0211 µM | 93.1 | 97.2 | 99.9
RPMI 5 mM glucose + 10% FBS, 0.0632 µM | 90.8 | 101 | 101
RPMI 5 mM glucose + 10% FBS, 0.19 µM | 93.4 | 88.8 | 108
RPMI 5 mM glucose + 10% FBS, 0.569 µM | 90.1 | 97.2 | 96.2
RPMI 5 mM glucose + 10% FBS, 1.71 µM | 90.1 | 101 | 94.7
RPMI 5 mM glucose + 10% FBS, 5.12 µM | 81.3 | 88.1 | 84.3
RPMI 5 mM glucose + 10% FBS, 15.4 µM | 79.9 | 74.9 | 62
RPMI 5 mM glucose + 10% FBS, 46.1 µM | 74.7 | 44.9 | 23.7
RPMI 5 mM glucose + 10% dialyzed FBS, 0.000781 µM | 95.8 | 96.6 | 73.3
RPMI 5 mM glucose + 10% dialyzed FBS, 0.00234 µM | 82.6 | 105 | 112
RPMI 5 mM glucose + 10% dialyzed FBS, 0.00702 µM | 93.8 | 102 | 111
RPMI 5 mM glucose + 10% dialyzed FBS, 0.0211 µM | 100 | 103 | 109
RPMI 5 mM glucose + 10% dialyzed FBS, 0.0632 µM | 95.3 | 95.6 | 103
RPMI 5 mM glucose + 10% dialyzed FBS, 0.19 µM | 85.5 | 97.3 | 105
RPMI 5 mM glucose + 10% dialyzed FBS, 0.569 µM | 88.8 | 96.4 | 81.2
RPMI 5 mM glucose + 10% dialyzed FBS, 1.71 µM | 97.4 | 101 | 98.2
RPMI 5 mM glucose + 10% dialyzed FBS, 5.12 µM | 88.6 | 86.5 | 84.4
RPMI 5 mM glucose + 10% dialyzed FBS, 15.4 µM | 75.8 | 84.7 | 60.8
RPMI 5 mM glucose + 10% dialyzed FBS, 46.1 µM | 70.3 | 55.3 | 22.1

O=C([O-])C(O)Cc1ccc(O)c(O)c1 (stereo unspecified)
AUC of viability dose-response curve
Details | [1] | [2] | [3]
HPLM + 10% dialyzed FBS | 447 | 453 | 398
RPMI 5 mM glucose + 10% FBS | 416 | 452 | 413
RPMI 5 mM glucose + 10% dialyzed FBS | 434 | 438 | 387

cell viability [%]
Details | [4] | [5] | [6]
HPLM + 10% dialyzed FBS, 0.000781 µM | 100 | 109 | 93.4
HPLM + 10% dialyzed FBS, 0.00234 µM | 91 | 107 | 111
HPLM + 10% dialyzed FBS, 0.00702 µM | 108 | 99.1 | 93.6
HPLM + 10% dialyzed FBS, 0.0211 µM | 95.5 | 110 | 95.6
HPLM + 10% dialyzed FBS, 0.0632 µM | 116 | 111 | 96
HPLM + 10% dialyzed FBS, 0.19 µM | 106 | 106 | 81.2
HPLM + 10% dialyzed FBS, 0.569 µM | 99.4 | 104 | 79.2
HPLM + 10% dialyzed FBS, 1.71 µM | 100 | 93.7 | 76.4
HPLM + 10% dialyzed FBS, 5.12 µM | 90.8 | 95.7 | 71.2
HPLM + 10% dialyzed FBS, 15.4 µM | 74.9 | 90.2 | 74.2
HPLM + 10% dialyzed FBS, 46.1 µM | 60.1 | 90.1 | 55
RPMI 5 mM glucose + 10% FBS, 0.000781 µM | 91.8 | 101 | 102
RPMI 5 mM glucose + 10% FBS, 0.00234 µM | 83.7 | 96.6 | 111
RPMI 5 mM glucose + 10% FBS, 0.00702 µM | 87.1 | 107 | 105
RPMI 5 mM glucose + 10% FBS, 0.0211 µM | 96.5 | 99.6 | 96.8
RPMI 5 mM glucose + 10% FBS, 0.0632 µM | 91.2 | 99.4 | 107
RPMI 5 mM glucose + 10% FBS, 0.19 µM | 91.8 | 98.3 | 96.3
RPMI 5 mM glucose + 10% FBS, 0.569 µM | 84 | 92.6 | 87.3
RPMI 5 mM glucose + 10% FBS, 1.71 µM | 92.5 | 90.2 | 76.2
RPMI 5 mM glucose + 10% FBS, 5.12 µM | 87.4 | 99.9 | 88.5
RPMI 5 mM glucose + 10% FBS, 15.4 µM | 77.9 | 81.8 | 75.7
RPMI 5 mM glucose + 10% FBS, 46.1 µM | 64.3 | 83.3 | 53.4
RPMI 5 mM glucose + 10% dialyzed FBS, 0.000781 µM | 96.7 | 95 | 93.7
RPMI 5 mM glucose + 10% dialyzed FBS, 0.00234 µM | 102 | 99.2 | 109
RPMI 5 mM glucose + 10% dialyzed FBS, 0.00702 µM | 104 | 99.9 | 101
RPMI 5 mM glucose + 10% dialyzed FBS, 0.0211 µM | 100 | 95.5 | 96
RPMI 5 mM glucose + 10% dialyzed FBS, 0.0632 µM | 96.4 | 92.3 | 79.8
RPMI 5 mM glucose + 10% dialyzed FBS, 0.19 µM | 91.4 | 96.8 | 96.3
RPMI 5 mM glucose + 10% dialyzed FBS, 0.569 µM | 100 | 93.2 | 69
RPMI 5 mM glucose + 10% dialyzed FBS, 1.71 µM | 84.4 | 87.9 | 76.8
RPMI 5 mM glucose + 10% dialyzed FBS, 5.12 µM | 81.4 | 89 | 60.4
RPMI 5 mM glucose + 10% dialyzed FBS, 15.4 µM | 78.5 | 74.6 | 74.5
RPMI 5 mM glucose + 10% dialyzed FBS, 46.1 µM | 65.4 | 83.5 | 50.4
